Test results as given in publication PMC4663552, “Identification of Antiviral Agents Targeting Hepatitis B Virus Promoter from Extracts of Indonesian Marine Organisms by a Novel Cell-Based Screening Assay” (Marine Drugs, 2015).
Like-named read-outs stand apart in the source and are kept apart here.

What was measured:
[1] = Cytotoxicity in HepG2.2.15.7 cells (MTS assay); type: cell-based; conditions: human, 9 days post-treatment, read-out: CC50 (reduction of cell viability)
Protocol: (§1) HepG2.2.15.7 cells were seeded at 1 × 10^4 cells per well in a collagen coated 96-well plate (Corning, Corning, NY, USA) and incubated at 37 °C for 24 h before treatment. The tested compound was added to the culture medium at the indicated concentrations. The culture medium was exchanged every 3 days for fresh medium containing the compound. The treated cells and culture supernatants were harvested 9 days post-treatment and were subjected to MTS assay and estimation of HBV DNA, respectively. The culture supernatant was mixed with an equal volume of Sidestep lysis and stabilization buffer (Agilent Technologies, Santa Clara, CA, USA). The viral DNA included in the mixture was estimated by real-time quantitative PCR using the THUNDERBIRD Probe qPCR Mix (TOYOBO, Osaka, Japan). The forward and reverse primers targeting HBV surface region are 5′-[…]-3′ and 5′-[…]-3′, respectively. The fluorogenic probe was 5′-FAM-[…]-TAMRA-3 [40].

HBV = test: Anti HBV activity in HepG2.2.15.7 cells (supernatant HBV DNA, real-time qPCR); type: cell-based, Hepatitis B virus; conditions: for EC50: Hepatitis B virus, read-out: EC50 (inhibition of the HBV viral DNA release)
Protocol: as §1

HBV core promoter = test: Cell-based HBV core promoter assay (luciferase reporter, Huh7 GL4.18 CURS_BC_AeUS cells); conditions: Hepatitis B virus, Huh-7, 48 h incubation
Protocol: Huh7 GL4.18 CURS_BC_AeUS cells were seeded at 2 × 10^4 cells per well in a 48-well plate and then treated with 25 µg/mL each extracts 24 h after seeding cells. The treated cells were harvested 48 h post-treatment and then lysed with Cell culture lysis buffer (Promega, Madison, WI, USA). Luciferase activity was measured by using Luciferase assay systems (Promega, Madison, WI, USA). The resulting luminescence was detected as described above.

MCF-7 cells = system: MCF-7 cells; parameters: method as in PMID 18198840; conditions: MCF-7 cells (a breast cancer cell line); cited from earlier work
Tie2 kinase = system: Tie2 kinase; parameters: method as in PMID 15653332; conditions: cited from earlier work
[2] = 216 h, HepG2.2.15.7 cells, 9 days post-treatment, supernatant HBV DNA

| SMILES | CC50 at 9 days [1] | Selectivity Index (CC50/EC50) (HBV; HepG2.2.15.7 cells) | EC50 (HBV; HepG2.2.15.7, 216 h) | IC50 (HBV core promoter) | EC50 (HBV; [2]) | Effect on cell cycle (MCF-7 cells) | Effect on Tie2 kinase activity (Tie2 kinase) |
| --- | --- | --- | --- | --- | --- | --- | --- |
| C=C1[C@H](CO)[C@@H](O)C[C@@H]1n1cnc2c(=O)[nH]c(N)nc21 [Entecavir, reference compound] | > 100 µM | >4761 | 0.021 ± 0.003 µM | – | – | – | – |
| Oc1cc(Br)c(Br)c(Br)c1Oc1ccc(Br)cc1Br [Compound 2, 3,4,5-tribromo-2-(2,4-dibromophenoxy)-phenol] | 10.3 ± 3.69 µM | 12.8 | – | 4.9 µM | 0.8 ± 0.34 µM | – | – |
| Oc1cc(Br)cc(Br)c1Oc1ccc(Br)cc1Br [Compound 1, 3,5-dibromo-2-(2,4-dibromophenoxy)-phenol] | 4.19 ± 0.12 µM | 18.2 | – | 2.3 µM | 0.23 ± 0.07 µM | induces G1 phase cell cycle arrest | suppressed activity of Tie2 kinase |
